Test results taken from US10806747B2, “Methods for treating infection including sepsis via P2X receptor modulation” (Rutgers, The State University of New Jersey, priority 2017, dated 2020).

Experiments:
peritoneal macrophages [1] = assay: Intracellular killing of E. coli by peritoneal macrophages (gentamicin protection, CFU count); type: cell-based, murine; settings: for effect on ATP-stimulated E. coli killing: antagonist pretreatment 30 min before 5 min ATP pulse
Description: FIGS. 1A through 1K show ATP augments bacterial killing in macrophages in a P2X4R-dependent fashion. […] Peritoneal macrophages from WT and P2X7R^−/− mice were infected with E. coli (FIG. 1A) or with S. aureus (FIG. 1B) for 90 minutes, which was followed by pulsing the cells with ATP for 5 minutes. Subsequently, after a 2-hour incubation with 400 ng/ml gentamicin, the macrophages were lysed and serial dilutions of their intracellular content were spread onto LB agar plates. *P<0.05; **P<0.01 vs. E. coli; n=5-6. FIG. 1C and FIG. 1D show ATP augments bacterial killing independently of adenosine. Macrophages from WT and CD39^−/− mice were infected with E. coli, pulsed with ATP (FIG. 1C) or adenosine (FIG. 1D), and then incubated with gentamicin for 2 hours, which was followed by intracellular CFU counting. *P<0.05; **P<0.01 vs. E. coli; n=4-6. […] Peritoneal macrophages were isolated from WT mice and RNA was extracted from untreated cells. RNA was transcribed and quantitative PCRs were conducted. n=6. FIGS. 1F through 1K show P2X4Rs are responsible for the ATP-stimulated increase in bacterial killing in macrophages. Peritoneal macrophages were infected with E. coli for 90 min, pretreated with (FIG. 1F) P2X4R antagonist (5-BDBD) or (FIG. 1G) P2X7R antagonist (A438079) for 30 minutes before an ATP pulse for 5 minutes, and then incubated with gentamicin for 2 hours. Killing was determined at the end of this incubation period. *P<0.05; ***P<0.001 vs. E. coli treatment; ^##P<0.01 vs. ATP/E. coli treatment; n=5-6. In FIG. 1H, macrophages were transfected with scrambled siRNA- or P2X4 siRNA, and the effect of ATP on bacterial killing determined. **P<0.01 vs. E. coli treatment; n=6. In FIG. 1I, peritoneal macrophages from WT and P2X4R^−/− mice were infected with E. coli, pulsed with ATP, incubated with gentamicin for 2 hours and then bacterial killing was determined. **P<0.01 vs. E. coli treatment; n=6. In FIGS. 1J and 1K, phorbol 12-myristate 13-acetate (PMA)-differentiated human monocytic THP-1 cells were infected with E. coli for 90 minutes, exposed to ATP for 5 minutes and then killing was determined as described above for peritoneal macrophages (FIG. 1J). In other experiments, THP-1 cells were infected with E. coli, pretreated with 5-BDBD or vehicle for 30 minutes before a 5-minutes ATP pulse (FIG. 1K), two hours after which intracellular CFUs were determined. **P<0.01; vs. E. coli treatment; ^##P<0.01 vs. ATP/E. coli treatment. n=6-7. Data are expressed as mean±SEM. All results are representatives of three experiments.
Naive, thioglycollate-elicited murine peritoneal macrophages were treated with E. coli (K-12 strain) at 1:15 cell:bacteria ratio in vitro and incubated for 90 minutes to allow for phagocytosis to occur. After 90 minutes, the cells were washed to remove non-phagocytosed bacteria and treated with increasing concentrations (0.1 to 3 μM) of ATP or adenosine for 5 minutes. After 5 minutes, the medium was removed and the cells were washed extensively.
New medium was added that was supplemented with 100 μg/mL gentamicin. This allowed the maturation of the phagosome and killing of the phagocytosed bacteria. The cells were incubated for approximately 2 hours at 37° C. After incubation, the cells were washed 5 times to remove the gentamicin and were lysed. Colony forming units (CPUs) were determined after an overnight incubation on agar.

[2] = test system: sepsis by cecal ligation and puncture (CLP); assay: CLP sepsis model: survival, bacterial load, plasma BUN; type: in vivo, mice; settings: for survival: monitored 7 days, vs vehicle
Description: WT and P2X4R^−/− mice were injected with 10 mg/kg ivermectin or its vehicle and subjected to CLP. The survival of mice was monitored for 7 days *P<0.05-P2X4R^−/− injected with vehicle (n=21) vs. WT injected with vehicle (n=25); ***P<0.001—WT injected with ivermectin (n=20); vs. WT injected with vehicle (n=25). In FIGS. 3B and 3C bacterial burden was determined by counting the number of CFUs on blood agar plates after serial dilution of blood and peritoneal lavage samples. Blood and lavage fluid were collected at 16 hours after CLP. *P<0.05 vs. veh (veh and 10 mg/kg ivermectin; n=10 and 9, respectively. In FIG. 3D BUN was determined from plasma of ivermectin- or vehicle-treated mice 16 hours after CLP. *P<0.05. Veh and 10 mg/kg ivermectin; n=10 and 9, respectively. FIGS. 3E and 3F show ivermectin increasing intracellular killing of E. coli in cultured macrophages. Peritoneal macrophages were infected with E. coli for 90 minutes and then pulsed with ATP for 5 minutes. ATP was then removed and the macrophages were incubated with ivermectin for 30 minutes. Thereafter the ivermectin was removed and the cells were incubated in medium containing gentamicin for another 2 hours. The cells were then lysed and serial dilutions of intracellular content were spread onto LB agar plates. *P<0.05 (n=5-6); **P<0.01 (n=5-6). Data are expressed as mean±SEM. All results are representatives of three experiments.
From these studies, it was believed that pharmacological activation of P2X4Rs would have an effect opposite to that of inactivating these receptors genetically; that is that the pharmacological activation of P2X4Rs would be protective. To examine this, mice were injected with ivermectin, an anti-helminth drug that is a partial allosteric activator of P2X4Rs (Khakh et al. J Neurosci 1999 19:7289-7299) 90 minutes after performing CLP. […] Furthermore, ivermectin potentiated the ATP stimulation of bacterial killing in macrophages in vitro (FIGS. 3E and 3F).
Male C57B16/J rmce were anesthetized using Nembutal, and a 2-cm midline laparotomy was performed to allow exposure of the cecum with adjoining intestine. Approximately two-thirds of the cecum was tightly ligated with a 3.0 silk suture, and the ligated part of the cecum was perforated twice (through and through) with a 20-gauge needle. […] The mice were resuscitated with 1 ml of physiological saline injected subcutaneously and returned to their cages with free access to food and water, and survival was monitored for 7 days (p<0.05). Survival curves were analyzed using two-tailed Fisher's exact test.
Bacterial load in mice subjected to CLP was measured at 16 h after surgery. Dilutions of blood or peritoneal lavage fluid were cultured on tryptose blood agar plates, and the number of bacterial colonies was counted. […]

[3] = test system: human monocytic THP-1 cells; assay: Intracellular killing of E. coli by PMA-differentiated THP-1 cells; type: cell-based
Description: (§1) FIGS. 1A through 1K show ATP augments bacterial killing in macrophages in a P2X4R-dependent fashion. […] Peritoneal macrophages from WT and P2X7R^-/- mice were infected with E. coli (FIG. 1A) or with S. aureus (FIG. 1B) for 90 minutes, which was followed by pulsing the cells with ATP for 5 minutes. Subsequently, after a 2-hour incubation with 400 ng/ml gentamicin, the macrophages were lysed and serial dilutions of their intracellular content were spread onto LB agar plates. *P<0.05; **P<0.01 vs. E. coli; n=5-6. FIG. 1C and FIG. 1D show ATP augments bacterial killing independently of adenosine. […] RNA was transcribed and quantitative PCRs were conducted. n=6. […] Killing was determined at the end of this incubation period. *P<0.05; ***P<0.001 vs. E. coli treatment; ^##P<0.01 vs. ATP/E. coli treatment; n=5-6. In FIG. 1H, macrophages were transfected with scrambled siRNA- or P2X4 siRNA, and the effect of ATP on bacterial killing determined. **P<0.01 vs. E. coli treatment; n=6. In FIG. 1I, peritoneal macrophages from WT and P2X4R^-/- mice were infected with E. coli, pulsed with ATP, incubated with gentamicin for 2 hours and then bacterial killing was determined. **P<0.01 vs. E. coli treatment; n=6. […] Data are expressed as mean±SEM. […]

peritoneal macrophages [4] = assay: Intracellular killing of S. aureus by peritoneal macrophages (CFU count); type: cell-based, mice; settings: WT and P2X7R−/− macrophages; S. aureus 90 min, ATP pulse 5 min
Description: as §1

[5] = test system: murine polymicrobial sepsis; settings: injected ATP; cited from earlier work

22,23-dihydroavermectin [ivermectin]
ATP stimulation of bacterial killing in macrophages (peritoneal macrophages [1]; E. coli 90 min, ATP pulse 5 min, then ivermectin 30 min, gentamicin 2 h): potentiated
plasma BUN levels ([2]; 16 hours after CLP, 10 mg/kg ivermectin vs vehicle): diminished plasma BUN levels
survival ([2]; P2X4R−/− mice, 10 mg/kg ivermectin, CLP): failed to improve survival
survival ([2]; WT mice, 10 mg/kg ivermectin 90 minutes after CLP): improved survival
bacterial burden (CFUs) ([2]; blood and peritoneal lavage, 16 hours after CLP, 10 mg/kg ivermectin vs vehicle): decreased bacteria

Nc1ncnc2c1ncn2[C@@H]1O[C@H](COP(=O)(O)OP(=O)(O)OP(=O)(O)O)[C@@H](O)[C@H]1O [ATP, adenosine triphosphate]
killing of E. coli ([3]; ATP 5 min): increased killing of E. coli
killing of E. coli (peritoneal macrophages [1]; WT and P2X7R−/− macrophages, E. coli 90 min, ATP pulse 5 min, gentamicin 2 h): increased killing of E. coli
killing of E. coli (peritoneal macrophages [1]; macrophages from P2X4R−/− mice, ATP pulse): failed to stimulate E. coli killing
killing of E. coli (peritoneal macrophages [1]; macrophages from WT littermate controls, ATP pulse): dose-dependent increase in killing
killing of E. coli (peritoneal macrophages [1]; macrophages lacking CD39 (CD39−/−), ATP pulse): also killed E. coli
stimulatory effect of ATP on E. coli killing (peritoneal macrophages [1]; macrophages with P2X4R silencing vs scrambled control): largely reversed
intracellular bacterial killing (S. aureus) (peritoneal macrophages [4]): increases intracellular bacterial killing
macrophage-mediated bacterial killing [5]: augments macrophage-mediated bacterial killing

O=C1CN=C(c2cccc(Br)c2)c2oc3ccccc3c2N1 [P2X4R antagonist]
effect on ATP-stimulated E. coli killing ([3]; antagonist 30 min before 5 min ATP pulse): inhibited the stimulatory effect of ATP on E. coli killing
effect on ATP-stimulated E. coli killing (peritoneal macrophages [1]): prevented the stimulatory effect of ATP on E. coli killing

Clc1cccc(-c2nnnn2Cc2cccnc2)c1Cl [P2X7R antagonist]
effect on ATP-stimulated E. coli killing (peritoneal macrophages [1]): not P2X7R antagonist (FIG. 1G) prevented the stimulatory effect of ATP

Nc1ncnc2c1ncn2[C@@H]1O[C@H](CO)[C@@H](O)[C@H]1O [adenosine]
killing of E. coli (peritoneal macrophages [1]; macrophages from WT and CD39−/− mice, adenosine pulse): failed to increase E. coli killing
